According to patent US9636356B2, “Nanoparticle compositions of antibacterial compounds and other uses thereof” (JAWAHARLAL NEHRU CENTRE FOR ADVANCED SCIENTIFIC RESEARCH, priority 2012, dated 2017):

Tested on: vancomycin resistant E. faecium (VRE) (ATCC 51559)
Assay: Antibacterial activity (MIC), modified micro-dilution broth
Type: cell-based, Vancomycin resistant Enterococcus faecium
Conditions: 24 h, read-out: MIC VRE
Experimental: E. coli is cultured in Luria Bertani broth (10 g of tryptone, 5 g of yeast extract, and 10 g of NaCl in 1000 mL of sterile distilled water (pH −7) while S. aureus, P. aeruginosa and MRSA are grown in Yeast-dextrose broth (1 g of beef extract, 2 g of yeast extract, 5 g of peptone and 5 g of NaCl in 1000 mL of sterile distilled water). For E. faecium and VRE, Brain Heart Infusion broth (BHI) is used. K. pneumoniae is grown in nutrient media (3 g of beef extract and 5 g of peptone in 1000 mL of sterile distilled water). For solid media 5% agar is used along with above mentioned composition. The bacterial samples are freeze dried and stored at −80° C. 5 μl of these stocks are added to 3 mL of the nutrient broth and the culture is grown for 6 h at 37° C. prior to the experiments.
Antibacterial activity is determined with the slight modifications of standardized protocols. Water-soluble Q-PIBMI derivatives are assayed in a modified micro-dilution broth format. […] Bacteria, to be tested, grown for 6 h in the suitable media containing ˜10^9 cfu/mL (determined by spread plating method), which is then diluted to 10^5 cfu/mL using nutrient media. […] MIC value is determined by taking the average of triplicate O.D. values for each concentration and plotting it against concentration using Origin Pro 8.0 software. […]

For `CN[C@H](CC(C)C)C(=O)N[C@H]1C(=O)N[C@@H](CC(N)=O)C(=O)N[C@H]2C(=O)N[C@H]3C(=O)N[C@H](C(=O)N[C@H](C(=O)O)c4cc(O)cc(O)c4-c4cc3ccc4O)[C@H](O)c3ccc(c(Cl)c3)Oc3cc2cc(c3O[C@@H]2O[C@H](CO)[C@@H](O)[C@H](O)[C@H]2O[C@H]2C[C@](C)(N)[C@H](O)[C@H](C)O2)Oc2ccc(cc2Cl)[C@H]1O` [Vamcomycin], which MIC is on record?
Its MIC is greater than 156 µg/mL.
